Values joined by “and” are separate entries in the source; they are usually repeats but may differ in a detail not shown here. Equal values may be shown once. Inconclusive results and toxic doses are left out. The calls were made as follows: active = survival T/C of 150% or more; inactive = T/C below 125% in these data.
Test system: CD2F1 mice, L1210 leukemia ip, survival T/C
Test: NCI In Vivo Anticancer Drug Screen. Data for tumor model L1210 Leukemia (intraperitoneal) in CD2F1 (CDF1) mice
Conditions: higher = longer survival
Procedure, shortened: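 Antitumor effect is scored in animals hosting a serially transplanted tumor. Values compare compound-dosed animals against vehicle-only controls as a simple quotient.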

[1] = endpoint: mean survival time, dose: 50.0 mg/kg/injection, schedule: Q01DX009 (ip), vehicle: saline with Tween-80
[2] = endpoint: mean survival time, dose: 100.0 mg/kg/injection, schedule: Q01DX009 (ip), vehicle: saline with Tween-80
[3] = endpoint: mean survival time, dose: 200.0 mg/kg/injection, schedule: Q01DX009 (ip), vehicle: saline with Tween-80
[4] = endpoint: mean survival time, dose: 100.0 mg/kg/injection, schedule: Q04DX003 (ip), vehicle: saline with Tween-80
[5] = endpoint: mean survival time, dose: 200.0 mg/kg/injection, schedule: Q04DX003 (ip), vehicle: saline with Tween-80
[6] = endpoint: mean survival time, dose: 400.0 mg/kg/injection, schedule: Q04DX003 (ip), vehicle: saline with Tween-80
[7] = endpoint: mean survival time, dose: 100.0 mg/kg/injection, schedule: Q01DX001 (ip), vehicle: saline
[8] = endpoint: mean survival time, dose: 200.0 mg/kg/injection, schedule: Q01DX001 (ip), vehicle: saline
[9] = endpoint: mean survival time, dose: 400.0 mg/kg/injection, schedule: Q01DX001 (ip), vehicle: saline

Measured: T/C

CCCCCCC(C)OC(=O)CCCc1ccc(N(CCCl)CCCl)cc1 (stereo unspecified)
inactive: endpoint: mean survival time, dose: 50.0 mg/kg/injection, schedule: Q01DX009 (ip), vehicle: acetone 104 % of control | endpoint: mean survival time, dose: 100.0 mg/kg/injection, schedule: Q01DX009 (ip), vehicle: acetone 104 % of control | endpoint: mean survival time, dose: 200.0 mg/kg/injection, schedule: Q01DX009 (ip), vehicle: acetone 104 % of control

O=P(OCCCO)(N1CC1)N1CC1
inactive: endpoint: mean survival time, dose: 25.0 mg/kg/injection, schedule: Q01DX001 (ip), vehicle: other 101 % of control | endpoint: mean survival time, dose: 50.0 mg/kg/injection, schedule: Q01DX001 (ip), vehicle: other 101 % of control | endpoint: mean survival time, dose: 100.0 mg/kg/injection, schedule: Q01DX001 (ip), vehicle: other 102 % of control | endpoint: mean survival time, dose: 200.0 mg/kg/injection, schedule: Q01DX001 (ip), vehicle: other 98 % of control | endpoint: mean survival time, dose: 400.0 mg/kg/injection, schedule: Q01DX001 (ip), vehicle: other 96 % of control

Cc1ccc(/C=C/C(=O)/C=C/c2ccc(C)o2)o1
inactive: endpoint: median survival time, dose: 25.0 mg/kg/injection, schedule: Q01DX005 (ip), vehicle: saline with Tween-80 98 % of control | endpoint: median survival time, dose: 50.0 mg/kg/injection, schedule: Q01DX005 (ip), vehicle: saline with Tween-80 92 % of control | endpoint: median survival time, dose: 100.0 mg/kg/injection, schedule: Q01DX005 (ip), vehicle: saline with Tween-80 100 % of control | endpoint: median survival time, dose: 200.0 mg/kg/injection, schedule: Q01DX005 (ip), vehicle: saline with Tween-80 103 % of control | endpoint: median survival time, dose: 400.0 mg/kg/injection, schedule: Q01DX005 (ip), vehicle: saline with Tween-80 98 % of control

Cc1cc(C)c(CC=O)c(C)c1
inactive: endpoint: median survival time, dose: 25.0 mg/kg/injection, schedule: Q04DX002 (ip), vehicle: saline with Tween-80 100 % of control | endpoint: median survival time, dose: 50.0 mg/kg/injection, schedule: Q04DX002 (ip), vehicle: saline with Tween-80 100 % of control | endpoint: median survival time, dose: 100.0 mg/kg/injection, schedule: Q04DX002 (ip), vehicle: saline with Tween-80 100 % of control | endpoint: median survival time, dose: 200.0 mg/kg/injection, schedule: Q04DX002 (ip), vehicle: saline with Tween-80 100 % of control

Cc1cc(OCCOC(=O)Nc2c(Cl)cccc2Cl)cc(C)c1Cl
inactive: [1] 92 % of control | [2] 100 % of control | [3] 107 % of control

COC(=O)CCC(C)C1CCC2C3C(O)CC4CC(O)CCC4(C)C3CC(O)C12C (stereo unspecified)
inactive: endpoint: mean survival time, dose: 25.0 mg/kg/injection, schedule: Q01DX009 (ip), vehicle: saline with Tween-80 96 % of control | [1] 93 % of control | [2] 95 % of control and 100 % of control

CN1C2C=CC(=O)C1C1C(=O)N(c3ccccc3)C(=O)C12 (stereo unspecified)
inactive: endpoint: median survival time, dose: 12.5 mg/kg/injection, schedule: Q01DX005 (ip), vehicle: Klucel (hydroxypropylcellulose) (HPC) 93 % of control | endpoint: median survival time, dose: 25.0 mg/kg/injection, schedule: Q01DX005 (ip), vehicle: Klucel (hydroxypropylcellulose) (HPC) 98 % of control | endpoint: median survival time, dose: 50.0 mg/kg/injection, schedule: Q01DX005 (ip), vehicle: Klucel (hydroxypropylcellulose) (HPC) 93 % of control | endpoint: median survival time, dose: 100.0 mg/kg/injection, schedule: Q01DX005 (ip), vehicle: Klucel (hydroxypropylcellulose) (HPC) 94 % of control | endpoint: median survival time, dose: 200.0 mg/kg/injection, schedule: Q01DX005 (ip), vehicle: Klucel (hydroxypropylcellulose) (HPC) 95 % of control

CC(C)(CN(Cc1ccccc1)Cc1ccccc1)[N+](=O)[O-]
inactive: [1] 98 % of control | [2] 98 % of control | [3] 90 % of control

c1ccc(N=C(c2ccccc2)c2ccccc2)cc1
inactive: [4] 103 % of control | [5] 93 % of control | [6] 93 % of control

OCC1CCC(CO)CC1 (stereo unspecified)
inactive: endpoint: mean survival time, dose: 6.25 mg/kg/injection, schedule: Q01DX009 (ip), vehicle: Klucel (hydroxypropylcellulose) (HPC) 100 % of control | endpoint: mean survival time, dose: 12.5 mg/kg/injection, schedule: Q01DX009 (ip), vehicle: Klucel (hydroxypropylcellulose) (HPC) 95 % of control | endpoint: mean survival time, dose: 25.0 mg/kg/injection, schedule: Q01DX009 (ip), vehicle: Klucel (hydroxypropylcellulose) (HPC) 103 % of control

CC(C)C1C(O)C23CCC4C(C)(CO)CCCC4(C)C2CC13 (stereo unspecified)
inactive: endpoint: mean survival time, dose: 100.0 mg/kg/injection, schedule: Q01DX001 (ip), vehicle: saline with Tween-80 96 % of control | endpoint: mean survival time, dose: 200.0 mg/kg/injection, schedule: Q01DX001 (ip), vehicle: saline with Tween-80 94 % of control | endpoint: mean survival time, dose: 400.0 mg/kg/injection, schedule: Q01DX001 (ip), vehicle: saline with Tween-80 94 % of control

CC([NH-])C(=O)O.[Cl][Pt][Cl] (stereo unspecified)
inactive: endpoint: mean survival time, dose: 25.0 mg/kg/injection, schedule: Q04DX003 (ip), vehicle: saline 121 % of control | endpoint: mean survival time, dose: 50.0 mg/kg/injection, schedule: Q04DX003 (ip), vehicle: saline 110 % of control

C[CH2][Sn]1([CH2]C)[O]OC(c2ccccc2)[O]1 (stereo unspecified)
inactive: endpoint: mean survival time, dose: 0.78 mg/kg/injection, schedule: Q01DX009 (ip), vehicle: saline with Tween-80 106 % of control | endpoint: mean survival time, dose: 1.56 mg/kg/injection, schedule: Q01DX009 (ip), vehicle: saline with Tween-80 96 % of control | endpoint: mean survival time, dose: 3.12 mg/kg/injection, schedule: Q01DX009 (ip), vehicle: saline with Tween-80 98 % of control | endpoint: mean survival time, dose: 6.25 mg/kg/injection, schedule: Q01DX009 (ip), vehicle: saline with Tween-80 106 % of control | endpoint: mean survival time, dose: 12.5 mg/kg/injection, schedule: Q01DX009 (ip), vehicle: saline with Tween-80 112 % of control

[C-]#[O+].[Cl][Sn]([Cl])[Cl].[Cl][Sn]([Cl])[Cl].[Pt].c1ccc([PH+](c2ccccc2)c2ccccc2)cc1.c1ccc([PH+](c2ccccc2)c2ccccc2)cc1
inactive: endpoint: median survival time, dose: 3.12 mg/kg/injection, schedule: Q04DX003 (ip), vehicle: saline with Tween-80 108 % of control | endpoint: median survival time, dose: 6.25 mg/kg/injection, schedule: Q04DX003 (ip), vehicle: saline with Tween-80 106 % of control | endpoint: median survival time, dose: 12.5 mg/kg/injection, schedule: Q04DX003 (ip), vehicle: saline with Tween-80 110 % of control | endpoint: median survival time, dose: 25.0 mg/kg/injection, schedule: Q04DX003 (ip), vehicle: saline with Tween-80 113 % of control | endpoint: median survival time, dose: 50.0 mg/kg/injection, schedule: Q04DX003 (ip), vehicle: saline with Tween-80 110 % of control | endpoint: median survival time, dose: 100.0 mg/kg/injection, schedule: Q04DX003 (ip), vehicle: saline with Tween-80 112 % of control | endpoint: median survival time, dose: 200.0 mg/kg/injection, schedule: Q04DX003 (ip), vehicle: saline with Tween-80 108 % of control

O=C(NC/C(Br)=C/Br)Nc1cccc2c1CCCC2
inactive: [4] 96 % of control | [5] 101 % of control | [6] 90 % of control

N#C/C(=C\c1ccc([N+](=O)[O-])o1)[N+](=O)[O-]
inactive: endpoint: mean survival time, dose: 25.0 mg/kg/injection, schedule: Q04DX003 (ip), vehicle: saline with Tween-80 104 % of control | endpoint: mean survival time, dose: 50.0 mg/kg/injection, schedule: Q04DX003 (ip), vehicle: saline with Tween-80 94 % of control | [4] 97 % of control

COC(=O)C1C2C=CC(C2)C1C(=O)O (stereo unspecified)
inactive: [7] 100 % of control | [8] 98 % of control | [9] 103 % of control

CC(=O)c1cc(-c2ccccc2)nc2c(Cl)cc(Cl)cc12
inactive: [7] 102 % of control | [8] 91 % of control | [9] 103 % of control

NC(=O)CSc1ccc(Cl)cc1
inactive: [2] 113 % of control | [3] 94 % of control | endpoint: mean survival time, dose: 400.0 mg/kg/injection, schedule: Q01DX009 (ip), vehicle: saline with Tween-80 102 % of control

CCOC(=O)c1cn[nH]c1/N=N/N(C)C
inactive: endpoint: mean survival time, dose: 100.0 mg/kg/injection, schedule: Q01DX001 (ip), vehicle: carboxymethylcellulose (CMC) 115 % of control

Clc1cc(CBr)c2ccccc2n1
inactive: endpoint: mean survival time, dose: 100.0 mg/kg/injection, schedule: Q04DX002 (ip), vehicle: saline with Tween-80 101 % of control

Source: PubChem BioAssay AID256 (DTP/NCI, 2004)
